{"source": "paper PMC4109671", "about": "“Cloning, Expression, Purification, and Characterization of Glutaredoxin from Antarctic Sea-Ice Bacterium Pseudoalteromonas sp. AN178” (BioMed Research International, 2014)", "tested_on": "T1, rPsGrx", "T1 construct": "gene PsGrx; active site C12-P-F-C15 (abstract prints CPYC)", "assay": "GSH-dependent HED reduction coupled to yeast glutathione reductase, NADPH consumption at […] nm; Lineweaver-Burk", "format": "biochemical, Pseudoalteromonas sp. AN178", "details": "HED 0.4 to 8 mM, 1 mM GSH fixed, yeast GR, apparent Km, standard assay at 25°C"}
{"compound": "OCCSSCCO", "note": "[HED]", "values": [{"measurement": "Km", "value": 460, "unit": "µM"}]}
